Test results taken from the supplement of paper PMC10883282.

Legend:
Test in all cases: relative viability vs DMSO control (72 h) (fraction); higher = more viable cells
KHOS-240S = test system: KHOS-240S
Summary of the method: (§1)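 After seeding at densities set for 80–90% confluence in 384-well plates, sarcoma cell lines waited 24 h before 2.5 µl of serially diluted compound was added. Source plates held 10 mM down to 0.0002 mM. Plates were incubated 72 h at 37 °C with 5% CO2, with 0.1% DMSO vehicle and a 5 µM positive control, and relative viability was taken from ATPLite as percent growth averaged over up to triplicate wells, with 1 set as full and 0 as none.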

SW872 = test system: SW872
Summary of the method: as §1

A204 = test system: A204
Summary of the method: as §1

SK-LMS-1 = test system: SK-LMS-1
Summary of the method: as §1

SYO-1 = test system: SYO-1
Summary of the method: as §1

SK-ES-1 = test system: SK-ES-1
Summary of the method: as §1

HS729 = test system: HS729
Summary of the method: as §1

SW982 = test system: SW982
Summary of the method: as §1

SW1353 = test system: SW1353
Summary of the method: as §1

G401 = test system: G401
Summary of the method: as §1

MES-SA = test system: MES-SA
Summary of the method: as §1

SW684 = test system: SW684
Summary of the method: as §1

Cc1ccc(Nc2nccc(N(C)c3ccc4c(C)n(C)nc4c3)n2)cc1S(N)(=O)=O [Pazopanib]
Details	relative viability
A204, 0.00017 µM	1.03
A204, 0.00051 µM	1.06
A204, 0.00152 µM	1.06
A204, 0.00457 µM	1.03
A204, 0.01372 µM	0.977
A204, 0.04115 µM	0.928
A204, 0.1235 µM	0.611
A204, 0.3704 µM	0.348
A204, 1.111 µM	0.342
A204, 3.333 µM	0.294
A204, 10 µM	0.243
G401, 0.00017 µM	0.952
G401, 0.00051 µM	1.01
G401, 0.00152 µM	0.994
G401, 0.00457 µM	0.983
G401, 0.01372 µM	1
G401, 0.04115 µM	0.949
G401, 0.1235 µM	0.909
G401, 0.3704 µM	0.864
G401, 1.111 µM	0.857
G401, 3.333 µM	0.696
G401, 10 µM	0.449
HS729, 0.00017 µM	0.9
HS729, 0.00051 µM	0.922
HS729, 0.00152 µM	0.876
HS729, 0.00457 µM	0.879
HS729, 0.01372 µM	0.917
HS729, 0.04115 µM	0.8727
HS729, 0.1235 µM	0.843
HS729, 0.3704 µM	0.793
HS729, 1.111 µM	0.724
HS729, 3.333 µM	0.7
HS729, 10 µM	0.554
KHOS-240S, 0.00017 µM	1.03
KHOS-240S, 0.00051 µM	1.04
KHOS-240S, 0.00152 µM	1.05
KHOS-240S, 0.00457 µM	1.04
KHOS-240S, 0.01372 µM	1.03
KHOS-240S, 0.04115 µM	1.02
KHOS-240S, 0.1235 µM	0.975
KHOS-240S, 0.3704 µM	0.974
KHOS-240S, 1.111 µM	0.932
KHOS-240S, 3.333 µM	0.88
KHOS-240S, 10 µM	0.621
MES-SA, 0.00017 µM	0.9224
MES-SA, 0.00051 µM	0.925
MES-SA, 0.00152 µM	0.931
MES-SA, 0.00457 µM	0.934
MES-SA, 0.01372 µM	0.933
MES-SA, 0.04115 µM	0.928
MES-SA, 0.1235 µM	0.922
MES-SA, 0.3704 µM	0.95
MES-SA, 1.111 µM	0.931
MES-SA, 3.333 µM	0.824
MES-SA, 10 µM	0.517
SK-ES-1, 0.00017 µM	1.02
SK-ES-1, 0.00051 µM	1.001
SK-ES-1, 0.00152 µM	1.02
SK-ES-1, 0.00457 µM	1.03
SK-ES-1, 0.01372 µM	1.02
SK-ES-1, 0.04115 µM	1.02
SK-ES-1, 0.1235 µM	1.02
SK-ES-1, 0.3704 µM	1
SK-ES-1, 1.111 µM	1.01
SK-ES-1, 3.333 µM	0.916
SK-ES-1, 10 µM	0.524
SK-LMS-1, 0.00017 µM	0.993
SK-LMS-1, 0.00051 µM	1
SK-LMS-1, 0.00152 µM	1.02
SK-LMS-1, 0.00457 µM	1.06
SK-LMS-1, 0.01372 µM	1.01
SK-LMS-1, 0.04115 µM	0.998
SK-LMS-1, 0.1235 µM	0.973
SK-LMS-1, 0.3704 µM	0.9626
SK-LMS-1, 1.111 µM	0.981
SK-LMS-1, 3.333 µM	0.935
SK-LMS-1, 10 µM	0.776
SW684, 0.00017 µM	1.13
SW684, 0.00051 µM	1.13
SW684, 0.00152 µM	1.19
SW684, 0.00457 µM	1.15
SW684, 0.01372 µM	1.15
SW684, 0.04115 µM	1.129
SW684, 0.1235 µM	1.14
SW684, 0.3704 µM	1.12
SW684, 1.111 µM	1.16
SW684, 3.333 µM	1.13
SW684, 10 µM	0.878
SW872, 0.00017 µM	1
SW872, 0.00051 µM	0.986
SW872, 0.00152 µM	0.988
SW872, 0.00457 µM	0.9911
SW872, 0.01372 µM	0.989
SW872, 0.04115 µM	0.934
SW872, 0.1235 µM	0.9475
SW872, 0.3704 µM	0.968
SW872, 1.111 µM	0.984
SW872, 3.333 µM	0.934
SW872, 10 µM	0.694
SW982, 0.00017 µM	1.04
SW982, 0.00051 µM	1.01
SW982, 0.00152 µM	1.03
SW982, 0.00457 µM	1.03
SW982, 0.01372 µM	1.05
SW982, 0.04115 µM	1.05
SW982, 0.1235 µM	1.03
SW982, 0.3704 µM	1.04
SW982, 1.111 µM	1.06
SW982, 3.333 µM	1.016
SW982, 10 µM	0.729
SW1353, 0.00017 µM	0.962
SW1353, 0.00051 µM	0.952
SW1353, 0.00152 µM	0.94
SW1353, 0.00457 µM	0.977
SW1353, 0.01372 µM	0.96
SW1353, 0.04115 µM	0.947
SW1353, 0.1235 µM	0.946
SW1353, 0.3704 µM	0.939
SW1353, 1.111 µM	0.931
SW1353, 3.333 µM	0.89
SW1353, 10 µM	0.8
SYO-1, 0.00017 µM	0.919
SYO-1, 0.00051 µM	0.901
SYO-1, 0.00152 µM	0.882
SYO-1, 0.00457 µM	0.862
SYO-1, 0.01372 µM	0.823
SYO-1, 0.04115 µM	0.777
SYO-1, 0.1235 µM	0.685
SYO-1, 0.3704 µM	0.576
SYO-1, 1.111 µM	0.506
SYO-1, 3.333 µM	0.471
SYO-1, 10 µM	0.369

CCN1C(=O)N(c2c(F)c(OC)cc(OC)c2F)Cc2cnc3[nH]c(CN4CCOCC4)cc3c21 [Pemigatinib]
Details	relative viability
A204, 0.00017 µM	1.04
A204, 0.00051 µM	1.02
A204, 0.00152 µM	0.98
A204, 0.00457 µM	0.991
A204, 0.01372 µM	0.843
A204, 0.04115 µM	0.709
A204, 0.1235 µM	0.599
A204, 0.3704 µM	0.565
A204, 1.111 µM	0.516
A204, 3.333 µM	0.379
A204, 10 µM	0.333
G401, 0.00017 µM	0.978
G401, 0.00051 µM	0.982
G401, 0.00152 µM	0.93
G401, 0.00457 µM	0.8789
G401, 0.01372 µM	0.746
G401, 0.04115 µM	0.7
G401, 0.1235 µM	0.614
G401, 0.3704 µM	0.585
G401, 1.111 µM	0.518
G401, 3.333 µM	0.379
G401, 10 µM	0.349
HS729, 0.00017 µM	1
HS729, 0.00051 µM	0.95
HS729, 0.00152 µM	0.912
HS729, 0.00457 µM	0.92
HS729, 0.01372 µM	0.843
HS729, 0.04115 µM	0.751
HS729, 0.1235 µM	0.644
HS729, 0.3704 µM	0.622
HS729, 1.111 µM	0.544
HS729, 3.333 µM	0.484
HS729, 10 µM	0.444
KHOS-240S, 0.00017 µM	1.03
KHOS-240S, 0.00051 µM	1.03
KHOS-240S, 0.00152 µM	0.999
KHOS-240S, 0.00457 µM	1
KHOS-240S, 0.01372 µM	0.943
KHOS-240S, 0.04115 µM	0.917
KHOS-240S, 0.1235 µM	0.884
KHOS-240S, 0.3704 µM	0.862
KHOS-240S, 1.111 µM	0.841
KHOS-240S, 3.333 µM	0.789
KHOS-240S, 10 µM	0.687
MES-SA, 0.00017 µM	0.912
MES-SA, 0.00051 µM	0.9387
MES-SA, 0.00152 µM	0.937
MES-SA, 0.00457 µM	0.914
MES-SA, 0.01372 µM	0.91
MES-SA, 0.04115 µM	0.826
MES-SA, 0.1235 µM	0.732
MES-SA, 0.3704 µM	0.7701
MES-SA, 1.111 µM	0.641
MES-SA, 3.333 µM	0.397
MES-SA, 10 µM	0.376
SK-ES-1, 0.00017 µM	0.969
SK-ES-1, 0.00051 µM	0.963
SK-ES-1, 0.00152 µM	0.989
SK-ES-1, 0.00457 µM	0.965
SK-ES-1, 0.01372 µM	0.935
SK-ES-1, 0.04115 µM	0.972
SK-ES-1, 0.1235 µM	0.89
SK-ES-1, 0.3704 µM	0.816
SK-ES-1, 1.111 µM	0.599
SK-ES-1, 3.333 µM	0.354
SK-ES-1, 10 µM	0.2767
SK-LMS-1, 0.00017 µM	1.05
SK-LMS-1, 0.00051 µM	1.09
SK-LMS-1, 0.00152 µM	1.105
SK-LMS-1, 0.00457 µM	1.08
SK-LMS-1, 0.01372 µM	1.09
SK-LMS-1, 0.04115 µM	1.07
SK-LMS-1, 0.1235 µM	1.07
SK-LMS-1, 0.3704 µM	1.07
SK-LMS-1, 1.111 µM	0.9589
SK-LMS-1, 3.333 µM	0.667
SK-LMS-1, 10 µM	0.528
SW684, 0.00017 µM	1.1
SW684, 0.00051 µM	1.12
SW684, 0.00152 µM	1.13
SW684, 0.00457 µM	1.07
SW684, 0.01372 µM	1.12
SW684, 0.04115 µM	1.07
SW684, 0.1235 µM	1.05
SW684, 0.3704 µM	1.13
SW684, 1.111 µM	1.1
SW684, 3.333 µM	0.971
SW684, 10 µM	0.802
SW872, 0.00017 µM	1.02
SW872, 0.00051 µM	1.01
SW872, 0.00152 µM	1
SW872, 0.00457 µM	1.02
SW872, 0.01372 µM	0.999
SW872, 0.04115 µM	0.999
SW872, 0.1235 µM	0.964
SW872, 0.3704 µM	0.975
SW872, 1.111 µM	0.911
SW872, 3.333 µM	0.739
SW872, 10 µM	0.713
SW982, 0.00017 µM	0.989
SW982, 0.00051 µM	0.978
SW982, 0.00152 µM	0.98
SW982, 0.00457 µM	1
SW982, 0.01372 µM	0.985
SW982, 0.04115 µM	0.979
SW982, 0.1235 µM	0.992
SW982, 0.3704 µM	0.968
SW982, 1.111 µM	0.715
SW982, 3.333 µM	0.511
SW982, 10 µM	0.438
SW1353, 0.00017 µM	1.06
SW1353, 0.00051 µM	1.02
SW1353, 0.00152 µM	1.02
SW1353, 0.00457 µM	0.964
SW1353, 0.01372 µM	0.886
SW1353, 0.04115 µM	0.879
SW1353, 0.1235 µM	0.863
SW1353, 0.3704 µM	0.843
SW1353, 1.111 µM	0.836
SW1353, 3.333 µM	0.716
SW1353, 10 µM	0.539
SYO-1, 0.00017 µM	0.97
SYO-1, 0.00051 µM	0.962
SYO-1, 0.00152 µM	0.89
SYO-1, 0.00457 µM	0.86
SYO-1, 0.01372 µM	0.774
SYO-1, 0.04115 µM	0.763
SYO-1, 0.1235 µM	0.733
SYO-1, 0.3704 µM	0.725
SYO-1, 1.111 µM	0.687
SYO-1, 3.333 µM	0.652
SYO-1, 10 µM	0.635
